Results taken from PubChem BioAssay (NCI).
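Dose response: 5 concentrations. Exposure: 48 h. Format: 96-well plates. Endpoint: linear interpolation; highest concentration if not reached. GI50 marks 50% less growth. TGI: total growth inhibition.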

Legend:
Assay in all cases: growth of human tumour cells (NCI), 48 h
A498 renal = tested on: A498 renal
A549 NSCLC = tested on: A549 NSCLC
ACHN renal = tested on: ACHN renal
CAKI-1 renal = tested on: CAKI-1 renal
CCRF-CEM leukemia = tested on: CCRF-CEM leukemia
EKVX NSCLC = tested on: EKVX NSCLC
HCC-2998 colon = tested on: HCC-2998 colon
HCT-15 colon = tested on: HCT-15 colon
HL-60(TB) leukemia = tested on: HL-60(TB) leukemia
HOP-62 NSCLC = tested on: HOP-62 NSCLC
HOP-92 NSCLC = tested on: HOP-92 NSCLC
HS 578T breast = tested on: HS 578T breast
IGROV1 ovarian = tested on: IGROV1 ovarian
K-562 leukemia = tested on: K-562 leukemia
KM12 colon = tested on: KM12 colon
LOX IMVI melanoma = tested on: LOX IMVI melanoma
MCF7 breast = tested on: MCF7 breast
MDA-MB-231 breast = tested on: MDA-MB-231 breast
MDA-MB-468 breast = tested on: MDA-MB-468 breast
MOLT-4 leukemia = tested on: MOLT-4 leukemia
NCI-H226 lung = tested on: NCI-H226 lung
NCI-H23 lung = tested on: NCI-H23 lung
NCI-H460 lung = tested on: NCI-H460 lung
OVCAR-4 ovarian = tested on: OVCAR-4 ovarian
OVCAR-5 ovarian = tested on: OVCAR-5 ovarian
PC-3 prostate = tested on: PC-3 prostate
RXF 393 renal = tested on: RXF 393 renal
SF-268 CNS = tested on: SF-268 CNS
SF-295 CNS = tested on: SF-295 CNS
SF-539 CNS = tested on: SF-539 CNS
SK-MEL-28 melanoma = tested on: SK-MEL-28 melanoma
SK-MEL-5 melanoma = tested on: SK-MEL-5 melanoma
SK-OV-3 ovarian = tested on: SK-OV-3 ovarian
SN12C renal = tested on: SN12C renal
SNB-19 CNS = tested on: SNB-19 CNS
SNB-75 CNS = tested on: SNB-75 CNS
SR leukemia = tested on: SR leukemia
TK-10 renal = tested on: TK-10 renal
UACC-62 melanoma = tested on: UACC-62 melanoma
UO-31 renal = tested on: UO-31 renal

Compound: CSc1ccc(C(=O)Nc2ccc3nnn(/C(C#N)=C/c4ccccn4)c3c2)cc1
- GI50 (A498 renal): 13.2 µM
- TGI (A498 renal): 53.3 µM
- GI50 (A549 NSCLC): 3.46 µM
- TGI (A549 NSCLC): > 100 µM
- GI50 (ACHN renal): 1.74 µM
- TGI (ACHN renal): 3.11 µM
- GI50 (CAKI-1 renal): 1.33 µM
- TGI (CAKI-1 renal): 2.65 µM
- GI50 (CCRF-CEM leukemia): 2.1 µM
- TGI (CCRF-CEM leukemia): > 100 µM
- GI50 (EKVX NSCLC): 2.15 µM
- TGI (EKVX NSCLC): 4.89 µM
- GI50 (HCC-2998 colon): 1.79 µM
- TGI (HCC-2998 colon): 3.26 µM
- GI50 (HCT-15 colon): 1.66 µM
- TGI (HCT-15 colon): 3.53 µM
- GI50 (HL-60(TB) leukemia): 2.67 µM
- TGI (HL-60(TB) leukemia): > 100 µM
- GI50 (HOP-62 NSCLC): 3.11 µM
- TGI (HOP-62 NSCLC): 12.6 µM
- GI50 (HOP-92 NSCLC): 1.79 µM
- TGI (HOP-92 NSCLC): 4.62 µM
- GI50 (HS 578T breast): 2.51 µM
- TGI (HS 578T breast): 7.12 µM
- GI50 (IGROV1 ovarian): 1.91 µM
- TGI (IGROV1 ovarian): 3.8 µM
- GI50 (K-562 leukemia): 2.53 µM
- TGI (K-562 leukemia): > 100 µM
- GI50 (KM12 colon): 1.94 µM
- TGI (KM12 colon): 4.65 µM
- GI50 (LOX IMVI melanoma): 1.52 µM
- TGI (LOX IMVI melanoma): 2.92 µM
- GI50 (MCF7 breast): 1.28 µM
- TGI (MCF7 breast): 2.72 µM
- GI50 (MDA-MB-231 breast): 1.76 µM
- TGI (MDA-MB-231 breast): 3.23 µM
- GI50 (MDA-MB-468 breast): 1.31 µM
- TGI (MDA-MB-468 breast): 2.91 µM
- GI50 (MOLT-4 leukemia): 3.57 µM
- TGI (MOLT-4 leukemia): > 100 µM
- GI50 (NCI-H226 lung): 3.76 µM
- TGI (NCI-H226 lung): 26.9 µM
- GI50 (NCI-H23 lung): 1.78 µM
- TGI (NCI-H23 lung): 3.5 µM
- GI50 (NCI-H460 lung): 2.2 µM
- TGI (NCI-H460 lung): 4.35 µM
- GI50 (OVCAR-4 ovarian): 4.53 µM
- TGI (OVCAR-4 ovarian): > 100 µM
- GI50 (OVCAR-5 ovarian): 1.75 µM
- TGI (OVCAR-5 ovarian): 3.19 µM
- GI50 (PC-3 prostate): 2.74 µM
- TGI (PC-3 prostate): 7.14 µM
- GI50 (RXF 393 renal): 1.5 µM
- TGI (RXF 393 renal): 2.84 µM
- GI50 (SF-268 CNS): 4.16 µM
- TGI (SF-268 CNS): 45.3 µM
- GI50 (SF-295 CNS): 6.89 µM
- TGI (SF-295 CNS): 21.4 µM
- GI50 (SF-539 CNS): 1.66 µM
- TGI (SF-539 CNS): 3.05 µM
- GI50 (SK-MEL-28 melanoma): 1.68 µM
- TGI (SK-MEL-28 melanoma): 3.11 µM
- GI50 (SK-MEL-5 melanoma): 2.01 µM
- TGI (SK-MEL-5 melanoma): 4.79 µM
- GI50 (SK-OV-3 ovarian): 24.5 µM
- TGI (SK-OV-3 ovarian): > 100 µM
- GI50 (SN12C renal): 2.13 µM
- TGI (SN12C renal): 4.97 µM
- GI50 (SNB-19 CNS): 3.14 µM
- TGI (SNB-19 CNS): 12.1 µM
- GI50 (SNB-75 CNS): 3.97 µM
- TGI (SNB-75 CNS): 25.4 µM
- GI50 (SR leukemia): 2.75 µM
- TGI (SR leukemia): > 100 µM
- GI50 (TK-10 renal): 1.66 µM
- TGI (TK-10 renal): 3.11 µM
- GI50 (UACC-62 melanoma): 1.68 µM
- TGI (UACC-62 melanoma): 3.35 µM
- GI50 (UO-31 renal): 1.37 µM
- TGI (UO-31 renal): 2.65 µM
